Experiments:
[1] = target: T1, JMJD2C (Homo sapiens, UniProt Q9H3R0); assay: JMJD2C in vitro enzyme inhibition assay (TR-FRET); type: biochemical
T1 construct: purchased BPS Bioscience 50105
T1 sequence (Q9H3R0 2-372): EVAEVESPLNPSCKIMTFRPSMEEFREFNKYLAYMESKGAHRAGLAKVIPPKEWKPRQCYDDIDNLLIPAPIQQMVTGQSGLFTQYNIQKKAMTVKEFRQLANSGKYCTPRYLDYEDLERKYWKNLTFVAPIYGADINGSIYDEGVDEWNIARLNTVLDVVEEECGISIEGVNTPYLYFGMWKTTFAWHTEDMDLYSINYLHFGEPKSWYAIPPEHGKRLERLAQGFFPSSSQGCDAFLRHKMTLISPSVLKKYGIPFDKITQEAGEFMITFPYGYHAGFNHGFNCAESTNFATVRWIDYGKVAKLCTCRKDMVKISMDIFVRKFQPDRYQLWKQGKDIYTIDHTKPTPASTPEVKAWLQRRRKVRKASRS
From the text: (§1) This assay determines the ability of a test compound to inhibit Jarid1A, Jarid1B, and JMJD2C demethylase activity. Baculovirus expressed Jarid1A (GenBank Accession #NM_001042603, AA1-1090) was purchased from BPS Bioscience (Cat#50110). Baculovirus expressed Jarid1B (GenBank Accession #NM_006618, AA 2-751) was purchased from BPS Bioscience (Cat #50121) or custom made by MolecularThroughput. Baculovirus expressed JMJD2C (GenBank Accession #BC143571, AA 2-372) was purchased from BPS Bioscience (Cat#50105).
The ability of test compounds to inhibit the activity of JMJD2C was determined in 384-well plate format under the following reaction conditions: 0.3 nM JMJD2C, 300 nM H3K9me3-biotin labeled peptide (Anaspec cat #64360), 2 μM alpha-ketoglutaric acid in assay buffer of 50 mM HEPES, pH7.3, 0.005% Brij35, 0.5 mM TCEP, 0.2 mg/ml BSA, 50 μM sodium L-ascorbate, and 2 μM ammonium iron(II) sulfate. Reaction product was determined quantitatively by TR-FRET after the addition of detection reagent Phycolink Streptavidin-allophycocyanin (Prozyme) and Europium-anti-di-methylated histone H3 lysine 9 (H3K9me2) antibody (PerkinElmer) in the presence of 5 mM EDTA in LANCE detection buffer (PerkinElmer) at a final concentration of 50 nM and 1 nM, respectively.
(§2) The assay reaction was initiated by the following: 2 μl of the mixture of 900 nM H3K9me3-biotin labeled peptide and 6 μM alpha-ketoglutaric acid with 2 μl of 11-point serial diluted inhibitor in 3% DMSO were added to each well of the plate, followed by the addition of 2 μl of 0.9 nM JMJD2C to initiate the reaction. The reaction mixture was incubated at room temperature for 30 minutes, and terminated by the addition of 6 μl of 5 mM EDTA in LANCE detection buffer containing 100 nM Phycolink Streptavidin-allophycocyanin and 2 nM Europium-anti-H3K9me2 antibody. Plates were read by EnVisionMultilabel Reader in TR-FRET mode (excitation at 320 nm, emission at 615 nm and 665 nm) after 1 hour incubation at room temperature. A ratio was calculated (665/615) for each well and fitted to determine inhibition constant (IC50).

[2] = target: T2, Jarid1B (Homo sapiens, UniProt Q9UGL1); assay: Jarid1B in vitro enzyme inhibition assay (TR-FRET); type: biochemical
T2 construct: purchased BPS Bioscience or custom made by MolecularThroughput 50121
T2 sequence (Q9UGL1 2-751): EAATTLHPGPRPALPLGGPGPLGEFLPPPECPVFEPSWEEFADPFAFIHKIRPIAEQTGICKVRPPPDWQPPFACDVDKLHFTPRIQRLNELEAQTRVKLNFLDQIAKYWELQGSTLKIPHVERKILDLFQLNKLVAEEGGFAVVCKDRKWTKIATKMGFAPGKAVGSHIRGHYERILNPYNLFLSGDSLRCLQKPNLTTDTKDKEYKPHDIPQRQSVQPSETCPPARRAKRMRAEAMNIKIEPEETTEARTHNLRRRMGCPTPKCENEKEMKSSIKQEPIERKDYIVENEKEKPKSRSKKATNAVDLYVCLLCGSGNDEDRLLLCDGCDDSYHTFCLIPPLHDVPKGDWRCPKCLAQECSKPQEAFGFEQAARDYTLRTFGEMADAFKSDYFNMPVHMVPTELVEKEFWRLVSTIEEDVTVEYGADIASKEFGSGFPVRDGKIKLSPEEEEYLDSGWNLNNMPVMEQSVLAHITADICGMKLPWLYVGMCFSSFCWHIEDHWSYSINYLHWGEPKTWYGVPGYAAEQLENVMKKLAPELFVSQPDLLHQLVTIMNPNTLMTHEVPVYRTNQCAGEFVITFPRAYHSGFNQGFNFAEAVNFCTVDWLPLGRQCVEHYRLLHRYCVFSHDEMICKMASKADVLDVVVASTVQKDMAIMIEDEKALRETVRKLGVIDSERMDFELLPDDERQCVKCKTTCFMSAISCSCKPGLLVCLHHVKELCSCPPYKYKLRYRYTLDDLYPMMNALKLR
From the text: as §1
The ability of test compounds to inhibit the activity of Jarid1B was determined in 384-well plate format under the following reaction conditions: 0.8 nM Jarid1B, 300 nM H3K4me3-biotin labeled peptide (Anaspec cat #64357), 2 μM alpha-ketoglutaric acid in assay buffer of 50 mM HEPES, pH7.3, 0.005% Brij35, 0.5 mM TCEP, 0.2 mg/ml BSA, 50 μM sodium L-ascorbate, and 2 μM ammonium iron(II) sulfate. Reaction product was determined quantitatively by TR-FRET after the addition of detection reagent Phycolink Streptavidin-allophycocyanin (Prozyme) and Europium-anti-mono-or di-methylated histone H3 lysine 4 (H3K4me1-2) antibody (PerkinElmer) in the presence of 5 mM EDTA in LANCE detection buffer (PerkinElmer) at a final concentration of 25 nM and 1 nM, respectively.
as §2, with “nM H3K4me3-biotin” for “nM H3K9me3-biotin”, “DMSO was” for “DMSO were”, “of 2.4” for “of 0.9”, “nM Jarid1B” for “nM JMJD2C”, “containing 50” for “containing 100”, “nM Europium-anti-H3K4me1-2” for “nM Europium-anti-H3K9me2”

Row | SMILES | IC50 [1] [nM] | IC50 [2] [nM]
1 | CC(C)CCn1cc(Oc2nc(O)c3ccncc3n2)cn1 [Example 55, 2-{[1-(3-methylbutyl)pyrazol-4-yl]oxy}pyrido[3,4-d]pyrimidin-4-ol] | ≤ 100 | ≤ 100
2 | Oc1nc(Oc2cnn(C3CCCC3)c2)nc2cnccc12 [Example 56, 2-[(1-cyclopentylpyrazol-4-yl)oxy]pyrido[3,4-d]pyrimidin-4-ol] | ≤ 100 | ≤ 100
3 | CCCc1cccc(Oc2nc(O)c3ccncc3n2)c1 [Example 58, 2-(3-propylphenoxy)pyrido[3,4-d]pyrimidin-4-ol] | 100 to 1000 | ≤ 100
4 | O=C(c1cc(F)cc(Oc2nc(O)c3ccncc3n2)c1)N1CCOCC1 [Example 60] | 100 to 1000 | ≤ 100
5 | CCn1cc(Oc2nc(O)c3ccncc3n2)cn1 [Example 62, 2-[(1-ethyl-1H-pyrazol-4-yl)oxy]pyrido[3,4-d]pyrimidin-4-ol] | ≤ 100 | ≤ 100
6 | CC(C)n1cc(Oc2nc3cnccc3c(=O)[nH]2)cn1 [Example 63, 2-{[1-(propan-2-yl)-1H-pyrazol-4-yl]oxy}pyrido[3,4-d]pyrimidin-4-ol] | 100 to 1000 | ≤ 100
7 | COCCCn1cc(Oc2nc(O)c3ccncc3n2)cn1 [Example 65, 2-{[1-(3-methoxypropyl)-1H-pyrazol-4-yl]oxy}pyrido[3,4-d]pyrimidin-4-ol] | 100 to 1000 | ≤ 100
8 | Oc1nc(Oc2cnn(Cc3ccccc3)c2)nc2cnccc12 [Example 66, 2-[(1-benzyl-1H-pyrazol-4-yl)oxy]pyrido[3,4-d]pyrimidin-4-ol] | ≤ 100 | ≤ 100
9 | Oc1nc(Oc2cnn(C3CCOCC3)c2)nc2cnccc12 [Example 67, 2-{[1-(tetrahydro-2H-pyran-4-yl)-1H-pyrazol-4-yl]oxy}pyrido[3,4-d]pyrimidin-4-ol] | 100 to 1000 | ≤ 100
10 | Cn1cnc(-c2nccc3c(O)nc(OCC(F)(F)F)nc23)c1 [Example 70, 8-(1-methyl-1H-imidazol-4-yl)-2-(2,2,2-trifluoroethoxy)pyrido[3,4-d]pyrimidin-4-ol] | 100 to 1000 | ≤ 100
11 | Cn1cnc(-c2nccc3c(O)nc(OCCCC(F)(F)F)nc23)c1 [Example 74, 8-(1-methylimidazol-4-yl)-2-(4,4,4-trifluorobutoxy)pyrido[3,4-d]pyrimidin-4-ol] | 100 to 1000 | ≤ 100
12 | Cn1cnc(-c2nccc3c(O)nc(OCC(F)F)nc23)c1 [Example 77, 2-(2,2-difluoroethoxy)-8-(1-methylimidazol-4-yl)pyrido[3,4-d]pyrimidin-4-ol] | 100 to 1000 | ≤ 100
13 | Cn1cnc(-c2nccc3c(O)nc(OCCC4CC4)nc23)c1 [Example 78, 2-(2-cyclopropylethoxy)-8-(1-methylimidazol-4-yl)pyrido[3,4-d]pyrimidin-4-ol] | 100 to 1000 | ≤ 100
14 | CC(C)CCn1cc(Oc2nc(O)c3ccnc(-c4cn(C)cn4)c3n2)cn1 [Example 80, 2-[1-(3-methylbutyl)pyrazol-4-yl]oxy-8-(1-methylimidazol-4-yl)pyrido[3,4-d]pyrimidin-4-ol] | 100 to 1000 | ≤ 100

Further lines, results first:

Row | IC50 [1] [nM] | IC50 [2] [nM] | SMILES
15 | ≤ 100 | ≤ 100 | CCc1cccc(Oc2nc(O)c3ccncc3n2)c1 [Example 57, 2-(3-ethylphenoxy)pyrido[3,4-d]pyrimidin-4-ol]
16 | 100 to 1000 | ≤ 100 | CN(C)c1ccc(Oc2nc(O)c3ccncc3n2)cc1 [Example 59, 2-[4-(dimethylamino)phenoxy]pyrido[3,4-d]pyrimidin-4-ol]
17 | 100 to 1000 | ≤ 100 | COCCn1ncc2ccc(Oc3nc(O)c4ccncc4n3)cc21 [Example 61, 2-{[1-(2-methoxyethyl)-1H-indazol-6-yl]oxy}pyrido[3,4-d]pyrimidin-4-ol]
18 | 100 to 1000 | ≤ 100 | COCCn1cc(Oc2nc(O)c3ccncc3n2)cn1 [Example 64, 2-{[1-(2-methoxyethyl)-1H-pyrazol-4-yl]oxy}pyrido[3,4-d]pyrimidin-4-ol]
19 | 100 to 1000 | ≤ 100 | COc1nc(O)c2ccnc(-c3cn(C)cn3)c2n1 [Example 68, 2-methoxy-8-(1-methyl-1H-imidazol-4-yl)pyrido[3,4-d]pyrimidin-4-ol]
20 | 100 to 1000 | ≤ 100 | CCOc1nc(O)c2ccnc(-c3cn(C)cn3)c2n1 [Example 69, 2-ethoxy-8-(1-methyl-1H-imidazol-4-yl)pyrido[3,4-d]pyrimidin-4-ol]
21 | 100 to 1000 | ≤ 100 | Cn1cnc(-c2nccc3c(O)nc(OCc4ccc(F)cc4)nc23)c1 [Example 71, 2-[(4-fluorobenzyl)oxy]-8-(1-methyl-1H-imidazol-4-yl)pyrido[3,4-d]pyrimidin-4-ol]
22 | 100 to 1000 | ≤ 100 | Cn1cnc(-c2nccc3c(O)nc(OCC4CC4)nc23)c1 [Example 72, 2-(cyclopropylmethoxy)-8-(1-methylimidazol-4-yl)pyrido[3,4-d]pyrimidin-4-ol]
23 | 100 to 1000 | ≤ 100 | Cn1cnc(-c2nccc3c(O)nc(OCCO)nc23)c1 [Example 75, 2-(2-hydroxyethoxy)-8-(1-methylimidazol-4-yl)pyrido[3,4-d]pyrimidin-4-ol]
24 | 100 to 1000 | 100 to 1000 | CN(C)CCOc1nc(O)c2ccnc(-c3cn(C)cn3)c2n1 [Example 76, 2-[2-(dimethylamino)ethoxy]-8-(1-methylimidazol-4-yl)pyrido[3,4-d]pyrimidin-4-ol]
25 | 100 to 1000 | ≤ 100 | Cn1cnc(-c2nccc3c(O)nc(Oc4cnn(Cc5ccccc5)c4)nc23)c1 [Example 79, 2-(1-benzylpyrazol-4-yl)oxy-8-(1-methylimidazol-4-yl)pyrido[3,4-d]pyrimidin-4-ol]

Source: patent US10526327B2, “Histone demethylase inhibitors” (CELGENE QUANTICEL RESEARCH, INC., priority 2013, dated 2020)
